Measurements from US6602854B1, “Branched multimeric Apo A-I agonist compounds” (priority 1997, dated 2003).
Where a SMILES comes first, the peptide text is derived from it. Where no end group is shown, it is not given here. [ ]: non-standard residue; d: D form. Aib = CC(C)(N)C(=O)O

How the values were obtained:
[1] = biological target: T1, LCAT (purified from human plasma) (Homo sapiens, UniProt P04180); assay: LCAT activation assay; format: biochemical; design: ACTIVITY (%) LCAT: concentration or dose not given beside the values; conditions: for ACTIVITY (%) LCAT: LCAT activation as compared with native human ApoA-I; for LCAT activation: as compared with native ApoA-I (100%)
T1 construct: from tissue; host or cells: human plasma
T1 sequence (P04180 25-440): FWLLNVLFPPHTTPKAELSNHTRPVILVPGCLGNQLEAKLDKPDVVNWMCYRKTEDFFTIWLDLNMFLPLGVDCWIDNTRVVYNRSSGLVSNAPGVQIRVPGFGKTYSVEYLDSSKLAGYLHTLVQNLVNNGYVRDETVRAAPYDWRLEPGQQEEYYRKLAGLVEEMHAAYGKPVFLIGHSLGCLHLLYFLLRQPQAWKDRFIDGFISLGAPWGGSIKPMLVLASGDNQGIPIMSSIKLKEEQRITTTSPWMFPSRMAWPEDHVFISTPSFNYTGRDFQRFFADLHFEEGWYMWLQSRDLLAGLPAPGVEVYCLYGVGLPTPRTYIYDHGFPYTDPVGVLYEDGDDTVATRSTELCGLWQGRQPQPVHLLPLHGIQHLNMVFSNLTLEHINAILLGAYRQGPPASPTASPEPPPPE
Procedure: The peptides synthesized as described in Section 6, supra, were analyzed in vitro for their ability to activate LCAT. In the LCAT assay, substrate vesicles (small unilamellar vesicles or “SUVs”) composed of egg phophatidylcholine (EPC) or 1-Palmitoyl-2-oleyl-phosphatidyl-choline (POPC) and radiolabelled cholesterol are preincubated with equivalent masses either of peptide or ApoA-I (isolated from human plasma). The reaction is initiated by addition of LCAT (purified from human plasma). Native ApoA-I, which was used as positive control, represents 100% activation activity. “Specific activity” (i.e., units of activity (LCAT activation)/unit of mass) of the peptides can be calculated as the concentration of peptide that achieves maximum LCAT activation. For example, a series of concentrations of the peptide (e.a., a limiting dilution) can be assayed to determine the “specific activity” for the peptide—the concentration which achieves maximal LCAT activation (i.e., percentage conversion of cholesterol to cholesterol ester) at a specific timepoint in the assay (e.g., 1 hr.). When plotting percentage conversion of cholesterol at, e.g., 1 hr., against the concentration of peptide used, the “specific activity” can be identified as the concentration of peptide that achieves a plateau on the plotted curve.
The vesicles used in the LCAT assay are SUVs composed of egg phosphatidylcholine (EPC) or 1-palmitoyl-2-oleyl-phosphatidylcholine (POPC) and cholesterol with a molar ratio of 20:1. To prepare a vesicle stock solution sufficient for 40 assays, 7.7 mg EPC (or 7.6 mg POPC; 10 μmol), 78 μg (0.2 μmol) 4-^14C-cholesterol, 116 μg cholesterol (0.3 μmol) are dissolved in 5 ml xylene and lyophilized. Thereafter 4 ml of assay buffer is added to the dry powder and sonicated under nitrogen atmosphere at 4° C. Sonication conditions: Branson 250 sonicator, 10 mm tip, 6×5 minutes; Assay buffer: 10 mM Tris, 0.14 M NaCl, 1 mM EDTA, pH 7.4). The sonicated mixture is centrifuged 6 times for 5 minutes each time at 14,000 rpm (16,000×g) to remove titanium particles. The resulting clear solution is used for the enzyme assay.
For the LCAT purification, dextran sulfate/Mg^2+ treatment of human plasma is used to obtain lipoprotein deficient serum (LPDS), which is sequentially chromatographed on Phenylsepharose, Affigelblue, ConcanavalinA sepharose and anti-ApoA-I affinity chromatography, as summarized for a representative purification in TABLE IX, below: […]

[2] = Circular dichroism: degree of helicity (free, SUVs, micelles, TFE); conditions: for He (%) free: percent helicity of free, unbound peptide; for He (%) SUVs: percent helicity of peptide-SUV complexes; for He (%) mics: percent helicity of peptide-micelle complexes; for He (%) TFE: percent helicity of peptide-TFE solution
Procedure: Far UV circular dichroism spectra were recorded between 190 and 260 nm (in 0.5 nm or 0.2 nm increments) with a AVIV62DS spectrometer (AVIV Associates, Lakewood, N.J., USA) equipped with a thermoelectric cell holder and sample changer. The instrument was calibrated with (+)-10-camphoric acid. Between one and three scans were collected for each sample, using 10 cm, 5 cm, 1 cm and 0.1 cm path length quartz Suprasil cells, respectively, for peptide concentrations of 10^−7 M to 10^−4 M. The bandwidth was fixed at 1.5 nm and the scan speed to 1 s per wavelength step. The reported data are the mean of at least 2 or 3 independent measurements.
After background substraction, spectra were converted to molar ellipticity (θ) per residue in deg. […] dmol^−1. The peptide concentration was determined by amino acid analysis and also by absorption spectrometry on a Perkin Elmer Lambda 17 UV/Visible spectrophotometer when the peptide contained a chromophore (tryptophane, dansyl, naphtylalanine).
CD spectra were obtained with free, unbound peptide (5 μM in 5 mM phosphate buffer, pH 7.4); with peptide-SUV complexes (20:1 EPC:Chol., Ri=30 and Ri=50); with peptide-micelle complexes (1-myristoyl-2-hydroxy-sn-glycero-3-phosphatidyl choline, Ri=100); and with free, unbound peptide in the presence of 2,2,2-trifluoroethanol (TFE) (5 μM peptide, 90% vol TFE).
The SUVs were obtained by dispersing the lipids (10 mM, 20:1 EPC:Chol., Avanti Polar Lipids, Ala.) in phosphate buffer (5 mM, pH 7.4) with bubbling N2 for 5 min., followed by sonication (1.5 hr.) in a bath sonicator. The homogeneity of the preparation was checked by FPLC.
The micelles were obtained by dispersing the lipid (6 mM 1-myristoyl-2-hydroxy-sn-glycero-3-phosphatidyl choline, Avanti Polar Lipids, AL) in phosphate buffer (5 mM, pH 7.4) with bubbling N2 for 5 min., followed by vortexing.
To obtain the peptide-SUV complexes, SUVs were added to the peptide (5 μM in 5 mM phosphate buffer, pH 7.4) at a phospholipid-peptide molar ratio (Ri) of 30 or 50.
To obtain the peptide-micelle complexes, micelles were added to the peptide (5 μM in 5 mM phosphate buffer, pH 7.4) at a Ri of 100.
All spectra were recorded at 37° C. The stability of peptide 4 (SEQ ID NO:4) as a function of temperature (both free in buffer and in micelles) was determined by recording spectra at a series of different temperatures.
The degree of helicity of peptide 4 (SEQ ID NO:4) as a function of concentration was also determined.
The degree of helicity of the peptides in the various conditions was determined from the mean residue ellipticity at 222 nm (Chen et al., 1974, Biochemistry 13:3350-3359) or by comparing the CD spectra obtained to reference spectra available on databases (16 helical reference spectra from Provencher & Glockner, 1981, Biochemistry 20:33-37; denatured protein reference spectra from Venyaminov et al., 1993, Anal. Biochem. 214:17-24) using the CONTIN curve-fitting algorithm version 2DP, CD-1 pack (Aug. 1982) (Provencher, 1982, Comput. Phys. Commun. 27:213-227, 229-242). Acceptable fit was determined using the statistical analysis methodology provided by the CONTIN algorithm.

[3] = test system: lipidic vesicles (EPC/Chol 5%); assay: Fluorescence spectroscopy lipid binding; conditions: for I/Io / λmax: peptide 2 μM
Procedure: The lipid binding properties of the peptides synthesized in Section 6, supra, were tested by fluorescence measurements with labeled peptides, in the present case Tryptophane (Trp or W) or Naphtylalanine (Nal). The fluorescence spectra were recorded on a Fluoromax from Spex (Jobin-Yvon) equipped with a Xenon lamp of 150 W, two monochromators (excitation and emission), a photomultiplier R-928 for detection sensitive in the red up to 850 nm and a thermoelectric magnetic stirred cell holder. Quartz Suprasil cuvettes were used for measurements in the micromolar concentration range. A device of variable slits (from 0.4 to 5 nm) allows modulation of the incident and emitted intensities according to the concentration of peptide used. The reported values are in general the average of between 2 to 4 spectra. The peptide concentration is determined by absorption spectrometry on a Philips PU 8800 usng the absorption band of the Trp (ε280 nm=5,550 M^−1cm^−1 in Tris buffer) or the Nal (ε224 nm=92,770 M^−1cm^−1 in methanol).
Fluorescence spectra of the peptides were recorded between 290 nm and 450 nm in Tris-HCl buffer (20 mM, pH=7.5), in the presence and absence of lipidic vesicles. The small unilamellar vesicles were formed after rehydration in buffer of the lyophilized phospholipids, dispersion and tip sonification under a N2 stream. The lipids used were either Egg PC/Chol. (20:1) or POPC/Chol. (20:1). The spectra were recorded at a peptide concentration of 2 μM and at a temperature of 37° C. The fluorescence reference standard in the case of Trp was N-acetyltryptophanylamide (NATA).
Lipid binding studies were done through progressive lipidic vesicle addition to the peptide in solution at 2 μM (slits:5 nm in excitation and 1.5 nm in emission). Dilution effects were taken into account for the fluorescence intensity determination. The lipid concentrations were varied from 10 to 600 μM and the molar ratio of lipid to peptide (Ri) was varied from 5 to 300. The wavelength of excitation was set at 280 nm for both Trp and Nal.
The data were directly recorded and treated by an IBM-PC linked to the spectrofluorimeter through the DM3000F software from Spex. The spectra were corrected by substraction of the solvent contribution and by application of a coefficient given by the constructor taking into account the variation of the photomultiplier response versus the wavelength.
The fluorescence spectra of the peptides were characterized by the wavelength at their maximum of fluorescence emission and by their quantum yield compared to NATA in the case of peptides labeled with a tryptophane. The process of binding to lipids was analyzed by calculating the shift of the wavelength at the maximum of fluorescence emission, (λmax), and the variation of the relative. fluorescence intensity of emission versus the lipid concentration. The relative fluorescence intensity is defined as the following ratio: (I−I0)λmax/I0λmax. I and I0 are both measured at the (λmax) corresponding to the initial free state of the peptide, i.e., without lipids. I is the intensity at a defined lipid to peptide ratio and I0 is the same parameter measured in absence of lipids. The absence of these variations is relevant of the absence of interactions of the peptides with the lipids.

Molecule: CC(=O)N1CCC[C@H]1C(=O)N[C@H](C(=O)N[C@@H](CC(C)C)C(=O)N[C@@H](CC(=O)O)C(=O)N[C@@H](CCC(=O)O)C(=O)N[C@@H](Cc1ccccc1)C(=O)N[C@@H](CCCN=C(N)N)C(=O)N[C@@H](CCC(=O)O)C(=O)N[C@@H](CCCCN)C(=O)N[C@@H](CC(C)C)C(=O)N[C@@H](CC(N)=O)C(=O)N[C@@H](CCC(=O)O)C(=O)N[C@@H](CCC(=O)O)C(=O)N[C@@H](CC(C)C)C(=O)N[C@@H](CCC(=O)O)C(=O)N[C@@H](C)C(=O)N[C@@H](CC(C)C)C(=O)N[C@@H](CCCCN)C(=O)N[C@@H](CCC(N)=O)C(=O)N[C@@H](CCCCN)C(=O)N[C@@H](CC(C)C)C(=O)N[C@@H](CCCCN)C(N)=O)C(C)C [Segrest's consensus 22-mer, reference compound] (Ac-PVLDEFREKLNEELEALKQKLK-NH2)
- ACTIVITY (%) LCAT [1]: 10%
- LCAT activation [1]: 10%

Molecule: EWLEAFYKKVLEKLKELF [peptide 18AM4, reference compound]
- LCAT activation [1]: less than 4%
- He (%) free [2]: 18%
- He (%) SUVs [2]: 47%
- He (%) mics [2]: 44%

Molecule: PVLDLFRELLNELLEALOQOLO [peptide 14]
- ACTIVITY (%) LCAT [1]: 61%
- He (%) free [2]: 70%
- He (%) SUVs [2]: 80%
- He (%) mics [2]: 96%

Molecule: PVLDLFRELLNELLEAZKQKLK [peptide 10]
- ACTIVITY (%) LCAT [1]: 79%
- He (%) free [2]: 60%
- He (%) SUVs [2]: 70%
- He (%) TFE [2]: 71%
- He (%) mics [2]: 87%

Molecule: PVLDLFRELLNELZEALKQKLK [peptide 27]
- ACTIVITY (%) LCAT [1]: 44%
- He (%) free [2]: 72%
- He (%) SUVs [2]: 82%
- He (%) TFE [2]: 81%
- He (%) mics [2]: 92%

Molecule: PVLDLFRELLNLXLEALKEKLK (PVLDLFRELLNL[Aib]LEALKEKLK) [peptide 102, X is Aib; Gln-19 replaced by Glu-19]
- LCAT activation (in words) [1]: did not activate LCAT

Molecule: PVLDLFRELWNELLEALKQKLK [peptide 15, peptide 4 containing a Trp residue at position 10]
- He (%) free [2]: 55%
- He (%) SUVs [2]: 64%
- He (%) TFE [2]: 68%
- lipid binding (in words) [3]: very high affinity
- lipid to peptide molar ratio at maximum burying of the Tryptophane residue [3]: lower than 5
- maximum of the Trp emission wavelength when bound to lipidic vesicles ([3]; EPC/Chol 5% vesicles, shifted from 332 nm): 323 nm
- I/Io ([3]; Lipid:Peptide Molar Ratio (Ri) 0): 0
- λmax ([3]; Ri 0 (buffer, no lipid)): 332 nm
- I/Io ([3]; Ri 5): 10.8
- λmax ([3]; Ri 5): 323 nm
- I/Io ([3]; Ri 10): 13.2
- λmax ([3]; Ri 10): 323.5 nm
- I/Io ([3]; Ri 30): 17.5
- λmax ([3]; Ri 30): 323 nm
- I/Io ([3]; Ri 100): 26.4
- λmax ([3]; Ri 100): 323 nm
- I/Io ([3]; Ri 200): 43.5
- λmax ([3]; Ri 200): 323 nm

Molecule: pVLDLFRELLNEGLEALKQKLK [peptide 19]
- ACTIVITY (%) LCAT [1]: 58%

Molecule: pVLDLFRELLNELLEALKQKLK [peptide 21]
- ACTIVITY (%) LCAT [1]: 57%

Molecule: pVLDLFRELLNELLEALKQKLKK [peptide 5]
- ACTIVITY (%) LCAT [1]: 90%
